Results reported in the NIST ThermoML archive (doi:10.1021/je7006549).
± gives the expanded uncertainty stated by the source.

What was measured:
[1] = 101 kPa, Liquid
[2] = mn = molality of the nth substance listed, in mol/kg; details: 101 kPa, Liquid, m2 = 0

Cc1ccccc1C [1,2-dimethylbenzene]
[1]
Details	mass density [kg/m3]	viscosity [mPa·s]
303.15 K	872.1 ± 0.7	0.7404 ± 0.011
308.15 K	867.7 ± 0.8	0.69 ± 0.01
313.15 K	864 ± 0.8	0.6451 ± 0.0099
318.15 K	859.7 ± 0.8	0.6117 ± 0.0096
323.15 K	855.5 ± 0.8	0.5711 ± 0.0093
328.15 K	851.2 ± 0.8	0.5433 ± 0.0091
333.15 K	847.1 ± 0.9	0.5105 ± 0.0088

Cc1cccc(C)c1 [1,3-dimethylbenzene]
[1]
Details	mass density [kg/m3]	viscosity [mPa·s]
303.15 K	855.6 ± 0.7	0.549 ± 0.0092
308.15 K	851.1 ± 0.8	0.5201 ± 0.009
313.15 K	846.9 ± 0.8	0.4967 ± 0.0088
318.15 K	842.4 ± 0.8	0.4817 ± 0.0087
323.15 K	838.3 ± 0.8	0.444 ± 0.0085
328.15 K	833.7 ± 0.9	0.435 ± 0.0084
333.15 K	829.6 ± 0.9	0.413 ± 0.0082

Cc1ccc(C)cc1 [1,4-dimethylbenzene]
[1]
Details	mass density [kg/m3]	viscosity [mPa·s]
303.15 K	852 ± 0.7	0.5726 ± 0.0093
308.15 K	847.7 ± 0.7	0.5374 ± 0.009
313.15 K	843.2 ± 0.8	0.5178 ± 0.0089
318.15 K	838.7 ± 0.8	0.4882 ± 0.0087
323.15 K	834.5 ± 0.8	0.4595 ± 0.0085
328.15 K	829.9 ± 0.8	0.4439 ± 0.0084
333.15 K	825.6 ± 0.9	0.4189 ± 0.0082

c1ccccc1 [benzene]
[1]
Details	mass density [kg/m3]	viscosity [mPa·s]
303.15 K	868 ± 0.7	0.564 ± 0.0093
308.15 K	862.2 ± 0.8	0.5232 ± 0.009
313.15 K	857 ± 0.8	0.5001 ± 0.0088
318.15 K	851.6 ± 0.8	0.4714 ± 0.0086
323.15 K	846.3 ± 0.8	0.4397 ± 0.0084
328.15 K	840.7 ± 0.9	0.4145 ± 0.0082
333.15 K	835.4 ± 0.9	0.3932 ± 0.0081

CCc1ccccc1 [ethylbenzene]
[1]
Details	mass density [kg/m3]	viscosity [mPa·s]
303.15 K	858 ± 0.7	0.5986 ± 0.0095
308.15 K	853.5 ± 0.7	0.5691 ± 0.0093
313.15 K	849.5 ± 0.8	0.5372 ± 0.009
318.15 K	844.7 ± 0.8	0.506 ± 0.0088
323.15 K	840.5 ± 0.8	0.4805 ± 0.0086
328.15 K	835.9 ± 0.8	0.4566 ± 0.0085
333.15 K	831.6 ± 0.9	0.4371 ± 0.0083

CCc1ccccc1 [ethylbenzene] + CC1=CC(=O)c2ccccc2C1=O
[2]
Details	mass density [kg/m3]	viscosity [mPa·s]
303.15 K	858 ± 0.7	0.5986 ± 0.0095
308.15 K	853.5 ± 0.7	0.5691 ± 0.0093
313.15 K	849.5 ± 0.8	0.5372 ± 0.009
318.15 K	844.7 ± 0.8	0.506 ± 0.0088
323.15 K	840.5 ± 0.8	0.4805 ± 0.0086
328.15 K	835.9 ± 0.8	0.4566 ± 0.0085
333.15 K	831.6 ± 0.9	0.4371 ± 0.0083

Cc1ccccc1 [toluene]
[1]
Details	mass density [kg/m3]	viscosity [mPa·s]
303.15 K	857.5 ± 0.7	0.5253 ± 0.009
308.15 K	852.9 ± 0.8	0.4933 ± 0.0088
313.15 K	847.9 ± 0.8	0.4717 ± 0.0086
318.15 K	843.5 ± 0.8	0.4491 ± 0.0085
323.15 K	838.7 ± 0.8	0.4244 ± 0.0083
328.15 K	834 ± 0.9	0.4082 ± 0.0082
333.15 K	829.1 ± 0.9	0.3835 ± 0.008

Cc1ccccc1 [toluene] + CC1=CC(=O)c2ccccc2C1=O
[2]
Details	mass density [kg/m3]	viscosity [mPa·s]
303.15 K	857.5 ± 0.7	0.5253 ± 0.009
308.15 K	852.9 ± 0.8	0.4933 ± 0.0088
313.15 K	847.9 ± 0.8	0.4717 ± 0.0086
318.15 K	843.5 ± 0.8	0.4491 ± 0.0085
323.15 K	838.7 ± 0.8	0.4244 ± 0.0083
328.15 K	834 ± 0.9	0.4082 ± 0.0082
333.15 K	829.1 ± 0.9	0.3835 ± 0.008
